This is an account of results in patent US20230149409A1, “TREATMENT OF HUMAN PAPILLOMAVIRUS-ASSOCIATED CANCERS BY PD-L1 INHIBITORS” (priority 2021, published 2023).

Common to all, as to type: cell-based
In assay [1] the test system is PD-L1 (PD-L1 aAPC/CHO-K1 cells, Jurkat-PD-1-NFAT effector cells). As to the kind of experiment: Nuclear Factor of Activated T-cells (NFAT) assay. The settings on record: Cricetulus griseus; PD-L1 aAPC/CHO-K1 + Jurkat-PD-1-NFAT cells, 24 hours. An outline of the steps: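 PD-L1 aAPC/CHO-K1 cells (8000/well) were treated with compound (0.4% DMSO, 2 µM final), then co-cultured with Jurkat-PD-1-NFAT effector cells for 24 hours at 37° C. NFAT luciferase luminescence was normalized to DMSO as fold induction. Maximum induction is relative to the control compound's top FOI; EC50 is from curve fitting.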

Assay [2] has as its system PD-L1 (U2OS/PD-L1 cells, Jurkat-PD-1-SHP cells). As to the kind of experiment: Src Homology Region 2 Domain-containing Phosphatase (SHP) assay. The settings on record: Homo sapiens; U2OS/PD-L1 + Jurkat-PD-1-SHP cells, 2 hours. A digest of the protocol: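 U2OS/PD-L1 cells and Jurkat-PD-1-SHP cells (5,000 each per well) were co-incubated with compound in RPMI1640/1% FBS for 2 h at 37° C, with final DMSO 0.05%. PathHunter chemiluminescence was read after 1 h at room temperature. IC50 was fitted from percent of DMSO-control activity against log concentration.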

Assay [3] addresses T1, PD-L1 on CD14+ cells in human whole blood (Homo sapiens, UniProt Q9NZQ7).
T1 construct: Cells were gated on CD14+ (BD Biosciences) and PD-L1 expression determined by mean fluorescence intensity; host or cells: CD14+ cells in normal human whole blood, stimulated with human interferon gamma
Nature of the assay: PD-L1 whole blood internalization assay. The settings on record: 1 ng/mL interferon γ, CD14+ gated, 24 hour. A digest of the protocol: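 Normal human whole blood exposed to compound concentration range plus 1 ng/mL IFN-γ for 18–20 h at 37 °C, then stained for PD-L1 and CD14, red cells lysed/fixed. PD-L1 MFI measured on CD14+ gated cells by flow cytometry; IC50 from percent inhibition versus log concentration fit.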

T1 sequence (Q9NZQ7 19-290): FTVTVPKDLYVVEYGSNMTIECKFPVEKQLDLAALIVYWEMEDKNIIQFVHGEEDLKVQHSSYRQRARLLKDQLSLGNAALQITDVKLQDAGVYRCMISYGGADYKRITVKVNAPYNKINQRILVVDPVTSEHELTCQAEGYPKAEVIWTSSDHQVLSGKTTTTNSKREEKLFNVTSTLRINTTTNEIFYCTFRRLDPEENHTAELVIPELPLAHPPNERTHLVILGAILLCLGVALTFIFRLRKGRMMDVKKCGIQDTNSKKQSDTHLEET

For the molecule `Cc1c(Nc2nccc3cc(CN4CC[C@@H](O)C4)cnc23)cccc1-c1cccc(-c2nc3cc(CN4CC[C@@H](C(=O)O)C4)cc(C#N)c3o2)c1C` [Compound 1, (R)-1-((7-cyano-2-(3′-(3-(((R)-3-hydroxypyrrolidin-1-yl)methyl)-1,7-naphthyridin-8-ylamino)-2,2′-dimethylbiphenyl-3-yl)benzo[d]oxazol-5-yl)methyl)pyrrolidine-3-carboxylic acid], the EC50 in assay [1] is under 100 nM. Besides, the IC50 in assay [2] is under 10 nM; in assay [3], under 500 nM.

Take `Cn1c(C(=O)Nc2cccc(-c3cccc(NC(=O)c4nc5c(n4C)CCN(CCC46CCC(C(=O)O)(CC4)C6)C5)c3Cl)c2Cl)nc2c1CCN(CCC13CCC(C(=O)O)(CC1)C3)C2` [Compound 30, 4,4′-(((((2,2′-dichloro-[1,1′-bipheiryl]-3,3′-diyl)bis(azanediyl))bis(carbonyl))bis(1-methyl-1,4,6,7-tetrahydro-5H-imidazo[4,5-c]pyridine-2,5-diyl))bis(ethane-2,1-diyl))bis(bicyclo[2.2.1]heptane-1-carboxylic acid)]: the EC50 in assay [1] is under 100 nM. Further, the half-inhibitory concentration (IC50) was under 10 nM in assay [2] and under 100 nM in assay [3].

The term EC50 denotes the concentration at which the effect is half-maximal. As a reminder, the IC50 is the concentration at which inhibition is half-maximal.
